Data: patent US20250115598A1 (Anaxis Pharma Pty Ltd, priority 2021, published 2025)
Where two headings read alike, the source gives them in different places.

What was measured:
[1] = system: U937 human histiocytic leukemia cell line; test: Cellular assay: inhibition of TSQ induced necroptosis, CellTitre-Glo viability; conditions: U937 cells, 48 hours, TSQ cocktail, read-out: Inhibition of TSQ-induced necroptosis (IC50 cell-based assay)
In short: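 U937 cells (20,000/well) treated with compound (10-point, 36 μM top, 1:3) plus TSQ cocktail (hTNF-Fc 100 ng/ml, Smac mimetic 500 nM, Q-VD-OPh 10 μM), 48 h at 37° C., 0.3% DMSO. Viability by CellTitre-Glo ATP luminescence; counter screen without TSQ measured compound-only effects on viability.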

[2] = system: Immortalised Mouse Dermal Fibroblasts (MDFs); test: Cellular assay: inhibition of TSI induced necroptosis, CellTitre-Glo viability; conditions: MDF, 3 hours TSI cocktail, read-out: Inhibition of TSI-induced necroptosis (IC50 cell-based assay) in MDF
In short: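 Necroptosis induced for 3 h with TSI: rhTNF 100 ng/ml, Smac mimetic 500 nM, caspase inhibitor IDN-6556 10 μM. Mouse dermal fibroblasts had received compound (36 μM top, ten three-fold steps) 30 min beforehand. ATP-based viability scaled between untreated and TSI-only wells; IC50 taken as 4-parameter curve inflection.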

[3] = Mus musculus, Fibroblast, Table 27

| Molecule | IC50 ([1]; Homo sapiens, U-937, Table 26) [nM] | IC50 [2, 3] [nM] | IC50 ([1]; Table 23) [nM] | IC50 ([2]; Table 24) [nM] |
| --- | --- | --- | --- | --- |
| Cc1ncsc1-c1ccc(CNC(=O)[C@@H]2C[C@@H](O)CN2C(=O)[C@@H](NC(=O)CCN2CCCC(n3cc(-c4cnc(N)c5c(-c6ccc(NS(=O)(=O)C(F)F)c(O[C@@H](C)c7ccc(F)cc7)c6)nn(C)c45)cn3)C2)C(C)(C)C)cc1 (stereo partly drawn) [Compound 1014, (2S,4R)-1-[(2S)-2-{3-[3-(4-{4-amino-3-[4-(difluoromethanesulfonamido)-3-[(1S)-1-(4-fluorophenyl)ethoxy]phenyl]-1-methyl-1H-pyrazolo[4,3-c]pyridin-7-yl}-1H-pyrazol-1-yl)piperidin-1-yl]propanamido}-3,3-dimethylbutanoyl]-4-hydroxy-N-{[4-(4-methyl-1,3-thiazol-5-yl)phenyl]methyl}pyrrolidine-2-carboxamide] | < 1000 | 1000 to 10000 | – | – |
| Cc1ncsc1-c1ccc(CNC(=O)[C@@H]2C[C@@H](O)CN2C(=O)[C@@H](NC(=O)COCCN2CCCC(n3cc(-c4cnc(N)c5c(-c6ccc(NS(=O)(=O)C(F)F)c(O[C@@H](C)c7ccc(F)cc7)c6)nn(C)c45)cn3)C2)C(C)(C)C)cc1 (stereo partly drawn) [Compound 1015, (2S,4R)-1-[(2S)-2-(2-{2-[3-(4-{4-amino-3-[4-(difluoromethanesulfonamido)-3-[(1S)-1-(4-fluorophenyl)ethoxy]phenyl]-1-methyl-1H-pyrazolo[4,3-c]pyridin-7-yl}-1H-pyrazol-1-yl)piperidin-1-yl]ethoxy}acetamido)-3,3-dimethylbutanoyl]-4-hydroxy-N-{[4-(4-methyl-1,3-thiazol-5-yl)phenyl]methyl}pyrrolidine-2-carboxamide] | < 1000 | 1000 to 10000 | – | – |
| Cc1ncsc1-c1ccc(CNC(=O)[C@@H]2C[C@@H](O)CN2C(=O)[C@@H](NC(=O)COCCN2CCC(n3cc(-c4cnc(N)c5c(-c6ccc(NS(=O)(=O)C(F)F)c(O[C@@H](C)c7ccc(F)cc7)c6)nn(C)c45)cn3)CC2)C(C)(C)C)cc1 [Compound 1018, (2S,4R)-1-[(2S)-2-(2-{2-[4-(4-{4-amino-3-[4-(difluoromethanesulfonamido)-3-[(1S)-1-(4-fluorophenyl)ethoxy]phenyl]-1-methyl-1H-pyrazolo[4,3-c]pyridin-7-yl}-1H-pyrazol-1-yl)piperidin-1-yl]ethoxy}acetamido)-3,3-dimethylbutanoyl]-4-hydroxy-N-{[4-(4-methyl-1,3-thiazol-5-yl)phenyl]methyl}pyrrolidine-2-carboxamide] | < 1000 | 1000 to 10000 | – | – |
| Cc1ncsc1-c1ccc(CNC(=O)[C@@H]2C[C@@H](O)CN2C(=O)[C@@H](NC(=O)COCCOCCn2cc(-c3cnc(N)c4c(-c5ccc(NS(=O)(=O)C(F)F)c(O[C@@H](C)c6ccc(F)cc6)c5)nn(C)c34)cn2)C(C)(C)C)cc1 [Compound 1006, (2S,4R)-1-[(2S)-2-(2-{2-[2-(4-{4-amino-3-[4-(difluoromethanesulfonamido)-3-[(1S)-1-(4-fluorophenyl)ethoxy]phenyl]-1-methyl-1H-pyrazolo[4,3-c]pyridin-7-yl}-1H-pyrazol-1-yl)ethoxy]ethoxy}acetamido)-3,3-dimethylbutanoyl]-4-hydroxy-N-{[4-(4-methyl-1,3-thiazol-5-yl)phenyl]methyl}pyrrolidine-2-carboxamide] | < 1000 | 1000 to 10000 | – | – |
| Nc1ncc(-c2cnn(C3CCOCC3)c2)c2[nH]nc(-c3ccc(NS(=O)(=O)C(F)F)c(OCc4cccc(Cl)c4)c3)c12 [Compound 131] | – | – | 10 to 1000 | 1000 to 10000 |
| N-(4-(4-amino-1-methyl-7-(1-(1,2,2-trimethylpiperidin-4-yl)-1H-pyrazol-4-yl)-1H-pyrazolo[4,3-c]pyridin-3-yl)-2-((S)-1-(4-fluorophenyl)ethoxy)phenyl)-1,1-difluoromethanesulfonamide [Compound 113] | – | – | < 10 | < 1000 |
| Cc1ncsc1-c1ccc(CNC(=O)[C@@H]2C[C@@H](O)CN2C(=O)[C@@H](NC(=O)CCCCCCn2cc(-c3cnc(N)c4c(-c5ccc(NS(=O)(=O)C(F)F)c(O[C@@H](C)c6ccc(F)cc6)c5)nn(C)c34)cn2)C(C)(C)C)cc1 [Compound 1008, (2S,4R)-1-[(2S)-2-[7-(4-{4-amino-3-[4-(difluoromethanesulfonamido)-3-[(1 S)-1-(4-fluorophenyl)ethoxy]phenyl]-1-methyl-1H-pyrazolo[4,3-c]pyridin-7-yl}-1H-pyrazol-1-yl)heptanamido]-3,3-dimethylbutanoyl]-4-hydroxy-N-{[4-(4-methyl-1,3-thiazol-5-yl)phenyl]methyl}pyrrolidine-2-carboxamide] | < 1000 | < 1000 | – | – |
| C[C@H](Oc1cc(-c2nn(C)c3c(-c4cnn(CCCCCCCOc5cccc6c5C(=O)N(C5CCC(=O)NC5=O)C6=O)c4)cnc(N)c23)ccc1NS(=O)(=O)C(F)F)c1ccc(F)cc1 (stereo partly shown) [Compound 1031, N-(4-{4-amino-7-[1-(7-{[2-(2,6-dioxopiperidin-3-yl)-1,3-dioxo-2,3-dihydro-1H-isoindol-4-yl]oxy}heptyl)-1H-pyrazol-4-yl]-1-methyl-1H-pyrazolo[4,3-c]pyridin-3-yl}-2-[(1 S)-1-(4-fluorophenyl)ethoxy]phenyl)-1,1-difluoromethanesulfonamide] | < 1000 | < 1000 | – | – |
